Laboratory results taken from ChEMBL document CHEMBL1201862, “PubChem BioAssay data set” (2004).
The source made the active and inactive calls.

Columns and labels:
[1] = molecular target: T1, Cytochrome P450 1A2 (Homo sapiens, UniProt P05177);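 further: PubChem cytochrome P450 panel assay, CYP1A2 panel member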
T1 sequence (P05177 whole entry): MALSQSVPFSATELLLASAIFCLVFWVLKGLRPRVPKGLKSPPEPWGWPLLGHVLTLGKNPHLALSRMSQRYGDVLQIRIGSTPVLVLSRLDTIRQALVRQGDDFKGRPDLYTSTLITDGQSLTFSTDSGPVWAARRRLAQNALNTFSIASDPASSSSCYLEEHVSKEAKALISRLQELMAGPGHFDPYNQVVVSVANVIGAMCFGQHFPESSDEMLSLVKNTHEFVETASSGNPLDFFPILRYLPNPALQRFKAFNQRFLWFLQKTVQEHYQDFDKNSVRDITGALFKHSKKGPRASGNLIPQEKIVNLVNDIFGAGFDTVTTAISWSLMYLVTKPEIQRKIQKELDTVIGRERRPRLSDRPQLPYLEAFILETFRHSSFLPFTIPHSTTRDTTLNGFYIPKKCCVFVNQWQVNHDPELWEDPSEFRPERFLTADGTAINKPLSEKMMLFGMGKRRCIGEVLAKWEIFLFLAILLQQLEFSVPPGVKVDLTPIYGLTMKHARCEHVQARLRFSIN

[2] = NIH3T3 cell viability loss – ATP luminescence, mouse fibroblasts, counter-screen, dose response (AID 2010); assay type: functional, cell-based;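 further: cells exposed to compound for about 90 hours before reading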
[3] = Trypanosoma cruzi growth suppression in host cells – NIH3T3 host cells, beta-gal luminescence, confirmation (AID 2044); assay type: functional, cell-based;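 further: intracellular parasites grown in NIH/3T3 mouse fibroblasts as host cells; luminescent beta-galactosidase reporter signal from transgenic T. cruzi replicating inside host cells; inhibitors lower the luminescence signal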
[4] = molecular target: Cytochrome P450 2C19 (Homo sapiens, UniProt P33261); assay: Cytochrome panel assay with activity outcomes. Panel member name: p450-cyp2c19 Compounds with AC50 equal or less than 10 uM are considered active; assay type: functional
Chain of Cytochrome P450 2C19 (P33261 whole entry): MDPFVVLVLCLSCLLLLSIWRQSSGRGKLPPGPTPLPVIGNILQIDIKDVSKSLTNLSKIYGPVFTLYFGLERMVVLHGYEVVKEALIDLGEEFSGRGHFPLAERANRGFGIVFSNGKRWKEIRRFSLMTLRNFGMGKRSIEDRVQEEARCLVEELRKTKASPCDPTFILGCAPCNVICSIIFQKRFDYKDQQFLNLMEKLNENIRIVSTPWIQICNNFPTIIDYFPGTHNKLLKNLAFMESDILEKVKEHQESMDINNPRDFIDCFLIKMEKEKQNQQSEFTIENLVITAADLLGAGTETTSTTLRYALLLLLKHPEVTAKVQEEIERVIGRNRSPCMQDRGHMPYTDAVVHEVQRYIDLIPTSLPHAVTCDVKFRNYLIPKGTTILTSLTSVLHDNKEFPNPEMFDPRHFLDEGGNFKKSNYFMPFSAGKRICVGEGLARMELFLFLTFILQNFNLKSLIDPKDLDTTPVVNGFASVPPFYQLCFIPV

[5] = luciferase reporter signal suppression in cells – H4 neuroglioma cells, luminescence, dose response (AID 1990); assay type: functional, cell-based
[6] = Luminescence Cell-Based Dose Response HTS to Identify Inhibitors of 5'UTR Stem-Loop Driven Prion Protein mRNA Translation in H4 Neuroglioblastoma Cells. [Related pubchem assays: 1827 (Project Summary), 1813 (Primary HTS)]; assay type: functional
[7] = alpha-synuclein stem-loop luciferase translation blockers – H4 neuroglioma cells, luminescence, confirmation (AID 1988); assay type: functional, cell-based
[8] = molecular target: Cytochrome P450 2D6 (Homo sapiens, UniProt P10635);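 further: CYP2D6 member of a cytochrome P450 panel assay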
Chain of Cytochrome P450 2D6 (P10635 whole entry): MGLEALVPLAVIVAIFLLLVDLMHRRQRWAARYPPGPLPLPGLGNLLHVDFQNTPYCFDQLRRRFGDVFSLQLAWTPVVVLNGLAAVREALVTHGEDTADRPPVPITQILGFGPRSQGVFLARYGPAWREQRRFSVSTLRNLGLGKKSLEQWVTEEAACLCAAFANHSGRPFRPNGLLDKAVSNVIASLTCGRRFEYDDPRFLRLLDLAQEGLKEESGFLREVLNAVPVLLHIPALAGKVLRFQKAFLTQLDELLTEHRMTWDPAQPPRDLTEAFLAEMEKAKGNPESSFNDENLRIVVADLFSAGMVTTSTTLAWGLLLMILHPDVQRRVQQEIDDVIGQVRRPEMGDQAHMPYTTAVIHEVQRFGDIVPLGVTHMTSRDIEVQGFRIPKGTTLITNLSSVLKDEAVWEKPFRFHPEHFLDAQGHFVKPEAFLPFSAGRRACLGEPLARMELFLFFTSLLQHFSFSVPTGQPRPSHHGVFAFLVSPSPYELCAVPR

[9] = tested on: Streptococcus sp. 'group A'; assay: Streptococcus pyogenes SK(-)GAS viability under kanamycin – luminescence, BacTiterGlo, confirmation, counter-screen for streptokinase expression inhibitor project, dose response (AID 1900); assay type: functional, organism-based
[10] = tested on: Streptococcus; assay: GAS UMAA2166 growth inhibition – luminescence, BacTiterGlo, counter-screen for streptokinase expression inhibitor project, dose response (AID 1915); assay type: functional, organism-based;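 further: potency for reduction of bacterial viability or growth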

## OC[C@@H]1O[C@H](n2cnc3c(/C=C(\O)c4ccccc4)ncnc32)[C@H](O)[C@@H]1O
[1]
  AC50: 0.501 µM (inconclusive)

## O=C(Nc1nc2c(F)cc(F)cc2s1)C1CC1
[2]
  EC50: > 60 µM (not active)
[3]
  EC50: 0.305 µM (active)

## COc1ccc(CNc2ncnc3ccc(-c4cccnc4)cc23)c(OC)c1
[4]; read-out: AC50
  AC50: 31.6 µM (inconclusive)

## O=C(NC(Cc1c[nH]c2ccccc12)c1nnc2n1CCCCC2)c1ccccc1 (stereo not drawn)
[4]; read-out: AC50
  AC50: 17.8 µM (inconclusive)

## N#CC(C#N)=CNCCN1CCN(C=C(C#N)C#N)CC1
[4]
  AC50: inconclusive

## O=C(Cn1cc(C(F)(F)F)ccc1=O)N/N=C/c1cccc(Cl)c1Cl
[5]
  EC50: > 120 µM (not active)
[6]
  EC50: > 120 µM (not active)
[7]
  EC50: > 120 µM (not active)

## Oc1c[n+](CCCC[n+]2cc(O)on2)no1
[4]
  AC50: inconclusive

## O=C(O)COc1ccccc1/C=N/NC(=O)c1cc2ccccc2cc1O
[5]
  EC50: > 120 µM (not active)
[6]
  EC50: > 120 µM (not active)
[7]
  EC50: 18.7 µM (active)

## O=C(NC1CCN(Cc2ccccc2)CC1)c1cc(Br)c(Br)[nH]1
[5]
  EC50: > 120 µM (not active)
[2]
  EC50: > 60 µM (not active)
[3]
  EC50: 0.539 µM (active)
[6]
  EC50: > 120 µM (not active)
[7]
  EC50: > 120 µM (not active)

## O=C(NCC1CCCO1)/C(=C\c1ccco1)NC(=O)c1ccccc1 (stereo not drawn)
[1]
  AC50: 14.1 µM (inconclusive)

## N=c1c2c(-c3ccccc3)c(-c3ccccc3)n(Cc3ccco3)c2ncn1CCCO
[2]
  EC50: 11.3 µM (active)
[3]
  EC50: 1.33 µM (active)

## CN(Cc1ccco1)c1ccnc(-c2ccccc2C(F)(F)F)n1
[8]
  AC50: 25.1 µM (inconclusive)

## CCOC(=O)c1c(NC(=O)CN2CCCCC2)sc(CN(C)C)c1-c1ccccc1
[2]
  EC50: > 30 µM (not active)
[3]
  EC50: 1.11 µM (active)

## COc1ccccc1NS(=O)(=O)c1cccc(C(=O)N/N=C/c2cn(-c3ccccc3)nc2-c2ccccc2)c1
[5]
  EC50: > 120 µM (not active)
[6]
  EC50: > 120 µM (not active)
[7]
  EC50: > 120 µM (not active)

## O=C(Nc1ccccc1)N(Cc1ccccc1)CC(O)C(F)(F)F (stereo not drawn)
[1]
  AC50: 17.8 µM (inconclusive)

## Cc1ccc(-n2ncc3c2ncn2nc(-c4ccco4)nc32)c(C)c1
[4]; read-out: AC50
  AC50: 17.8 µM (inconclusive)

## COc1ccc(CC(=O)NCCN2CCCC2)cc1
[8]
  AC50: 28.2 µM (inconclusive)

## CC(C)CN(C(=O)COC(=O)c1c(Cl)ccc(Cl)c1Cl)C1CCS(=O)(=O)C1 (stereo not drawn)
[5]
  EC50: > 120 µM (not active)
[6]
  EC50: > 120 µM (not active)
[7]
  EC50: > 120 µM (not active)

## CCN1CCN(c2nc(-c3ccncc3)nc3ccccc23)CC1
[2]
  EC50: > 60 µM (not active)
[3]
  EC50: 1.23 µM (active)

## Cc1ccccc1Cn1cnc2c(cnn2C(C)(C)C)c1=O
[8]
  AC50: 35.5 µM (inconclusive)

## Cc1cc(C)c(S(=O)(=O)c2ccccc2C)c(Cl)n1
[2]
  EC50: > 60 µM (not active)
[3]
  EC50: 2.05 µM (active)

## O=C(NNC(=S)NC(=O)c1cccc([N+](=O)[O-])c1)c1ccc(Br)cc1
[9]
  EC50: 1.14 µM (active)
[10]
  EC50: 6.56 µM (active)

## CC(C)c1cc(CN(C)C)c(O)c(C(C)(C)C)c1
[8]
  AC50: 6.31 µM (inconclusive)

## Cc1cc(C)c(S(=O)(=O)Nc2ccccc2C(F)(F)F)c(C)c1
[1]
  AC50: 31.6 µM (inconclusive)

## COc1cccc(Cn2c(=O)c(C)nc3cnc(OCc4ccccc4)nc32)c1
[8]
  AC50: 20 µM (inconclusive)

## O=C(NC1CCCCCC1)c1cccs1
[4]; read-out: AC50
  AC50: 3.98 µM (inconclusive)
[8]
  AC50: 12.6 µM (inconclusive)

## CO[C@@H]1COC(=O)[C@H]2CCCN2C(=O)[C@@H](C)COC(=O)CCC[C@H]1C
[4]
  AC50: inconclusive

## CCCCN(C)CCCNC(=O)c1ccc(N2CCCC2=O)cc1
[1]
  AC50: 0.126 µM (inconclusive)

## Cc1nc(SCC(=O)Nc2c(C)nn(C)c2C)c2cnn(-c3ccccc3)c2n1
[4]; read-out: AC50
  AC50: 28.2 µM (inconclusive)
